# Test results reported in patent publication US5344846A, “Compositions and methods for inhibiting deoxyhypusine synthase and the growth of cells” (The United States of America as represented by the …, priority 1992, dated 1994).
# Entries after “also recorded” stand apart in the source; their conditions may differ.
# Columns and labels:
# [1] = biological target: T1, deoxyhypusine synthase from rat testis (Rattus norvegicus, UniProt Q6AY53); assay: Inhibition of deoxyhypusine synthase ([3H]deoxyhypusine formation from [3H]spermidine), IC50/Ki; format: biochemical; settings: for relative inhibitory potency (in words): comparison with parent amine, bisguanylated counterpart or another inhibitor; for inhibition of deoxyhypusine synthase (in words): pH 9.3, 37° C., 1 hour, 2.4 μM [3H]spermidine
# T1 construct: as catalyzed by deoxyhypusine synthase from rat testis; from tissue; host or cells: rat testis
# T1 sequence (Q6AY53 1-369): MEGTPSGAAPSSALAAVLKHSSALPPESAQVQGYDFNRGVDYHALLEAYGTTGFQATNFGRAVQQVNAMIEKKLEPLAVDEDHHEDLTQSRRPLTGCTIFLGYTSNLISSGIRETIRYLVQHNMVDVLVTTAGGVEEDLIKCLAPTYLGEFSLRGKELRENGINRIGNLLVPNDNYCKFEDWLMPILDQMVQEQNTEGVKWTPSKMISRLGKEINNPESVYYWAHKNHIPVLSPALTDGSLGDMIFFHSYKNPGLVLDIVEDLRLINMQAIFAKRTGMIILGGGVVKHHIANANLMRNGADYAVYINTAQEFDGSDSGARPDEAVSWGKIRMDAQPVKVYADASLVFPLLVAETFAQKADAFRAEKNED
# Method: The enzyme assay was performed as previously described (see Wolff et al. (1990) J. Biol. Chem. 265:4793-4799; and Park et al. (1991) J. Biol. Chem. 266:7988-7994). A typical assay mixture included 0.2M glycine, 1 mM dithiothreitol, 0.5 mM NAD^+, 2.4 micromolar (μM) [1,8-^3 H] spermidine, 1 μM ec-eIF-5A(Lys), 25 micrograms (μg) bovine serum albumin, and 3-15 units of enzyme in a total volume of 20 microliters (μl). Incubations were carried out at pH 9.3 and 37° C. for 1 hour. […] Percent inhibition was plotted versus log inhibitor concentration in order to obtain graphic estimates of IC50 values, i.e., the concentrations inhibiting [^3 H]deoxyhypusine production by 50%. The IC50 values reported in the tables were calculated by fitting the data points to equation 1 where x=% inhibition and I is the inhibitor concentration. [formula] The nature of the inhibition was determined by plotting reciprocal velocities of [^3 H]deoxyhypusine production against reciprocals of [^3 H]spermidine concentrations at a constant fixed level of ec-eIF-5A(Lys) (1 μM) and at set inhibitor concentrations. […] Estimates of Ki values were made by fitting the data to equation 2; wherein v is the velocity of the reaction, V is the maximum velocity, S is the substrate concentration, Km is Michaeli's constant, Ki is the inhibition constant, and I is the inhibitor concentration. [formula] All fits were performed by means of an interactive curve-fitting program, MLAB, developed and modified at the National Institutes of Health to run on an IBM personal computer.
# deoxyhypusine synthase [2] = biological target: T2, deoxyhypusine synthase (Rattus norvegicus, UniProt Q6AY53); assay: Substrate property for deoxyhypusine synthase; format: biochemical; settings: conditions similar to those for N-(3-aminopropyl)cadaverine
# T2 construct: full-length homotetramer; substrate was human eIF-5A precursor expressed in E. coli
# T2 sequence (Q6AY53 1-369): T1 sequence (Q6AY53 1-369)
# Method: (See Wolff et al. (1990) J. Biol. Chem. 265:4793-4799.) The Km(app) values for the substrates, spermidine, NAD^+ and eIF-5A precursor from spermidine-depleted CHO cells, have been calculated as approximately 4, 30, and 0.08 μM, respectively.
# This finding is consistent with the conclusion that this lysine is the only one in the precursor that is converted to hypusine, both in cells and in the enzyme reaction in vitro.
# [3] = test system: oat seedling polyamine oxidase; settings: cited from earlier work
# deoxyhypusine synthase [4] = settings: cited from earlier work
# [5] = test system: pea seedling diamine oxidase; settings: cited from earlier work
# [6] = cited from earlier work
# [7] = test system: deoxyhypusine synthase from HTC cells; settings: 20 μM inhibitor; 1 μM spermidine; precursor from DFMO-treated HTC cells; cited from earlier work
# [8] = biological target: T1, deoxyhypusine synthase from rat testis; settings: cited from earlier work
# deoxyhypusine synthase [9] = biological target: T2, deoxyhypusine synthase; settings: earlier publications; cited from earlier work
Molecule,relative inhibitory potency (in words) [1],inhibition of deoxyhypusine synthase (in words) [1],substrate property for deoxyhypusine synthase (deoxyhypusine synthase [2]),pKa of N8-amino group [6],inhibition of deoxyhypusine synthase [7] [%],further results
"N=C(N)NCCCCNCCCN [Compound 52, N^8 -guanylspermidine]",exceeded bisguanylated spermidine (compound 53) as inhibitors; also recorded: uniformly more efficient inhibition; also recorded: somewhat more effective inhibitor than N^1 -guanylspermidine (compound 51),high affinities for the enzyme,"Neither displayed any detectable substrate property; also recorded: If it were, it would function as a substrate which it does not",,,
"N=C(N)NCCCCCCCCNCCCCCCCCNC(=N)N [Compound 40, guazatine]",,,,,,inhibition of oat seedling polyamine oxidase [3]: known to inhibit; inhibition of deoxyhypusine synthase (literature) (deoxyhypusine synthase [4]): strong inhibitor; inhibition of pea seedling diamine oxidase [5]: known to inhibit
"N=C(N)NCCCNCCCCN [Compound 51, N^1 -guanylspermidine]",exceeded bisguanylated spermidine (compound 53) as inhibitors; also recorded: uniformly more efficient inhibition,high affinities for the enzyme,Neither displayed any detectable substrate property,,,
"NCCCNCCC(F)(F)CN [Compound 38, 7,7-Difluorospermidine]",,devoid of inhibitory activity; also recorded: no inhibition,,6.64,0,
"NCCCNCC(F)CCN (stereo not drawn) [Compound 36, 6-fluorospermidine]",,quite strong inhibitors; also recorded: effective inhibition; also recorded: act as inhibitors,,9.55,86,pKa of N1-amino group ([6]; N1-amino group): 10.40
"16-membered peptide: modeled on residues 40-55 of the human eIF-5A precursor protein and encompassing Lys^50 (IVEMSTSKTGKHGHAK; UniProt P63241 40-55, looked up, fragment)",,,,,,inhibition by precursor-related peptide [8]: only weak inhibition; substrate or cofactor function for deoxyhypusine synthase (deoxyhypusine synthase [9]): failed to act as a substrate
